The values below come from PMC6465774 (Frontiers in Pharmacology, 2019).

Structures can show the parent of a compound that is named as a salt.

For series [1], the system named is gastric emptying in weight-matched control rats. Conditions: 0.1 mg/kg s.c. 30 min before methylcellulose, weight-matched control animals, n = 7. Here is the method:
After 20 min the rats were sacrificed and the stomachs were removed after clamping the pylorus and cardia. […] Gastric emptying (%) was calculated as follows: [1 – (absorbance of sample / maximal absorbance)] × 100. Maximal absorbance was measured by processing the test meal alone, as described above.
In a separate experiment, weight match animals were treated either with saline, or with clonidine (0.1 mg/kg), an alpha2 adrenoceptor agonist and well-known inhibitor of gastric emptying, subcutaneously 30 min before the methylcellulose administration.

Series [2] has as its system STZ treated diabetic and weight matched non-diabetic rats (paw pressure withdrawal threshold). Conditions: rat, in vivo.
The next series concerns STZ treated animals. Set-up: method as in Yamamoto et al., 2009. As to conditions: doses up to 10 mg/kg (approximately 31 μmol/kg), 7 weeks following STZ treatment; ref Yamamoto et al., 2009; cited from earlier work.
Series [3] concerns STZ treated diabetic rats with allodynia. As to conditions: rat, in vivo.
The test system of series [4] is STZ treated neuropathic rats. Nature of the series: Antagonist effect of co-administered NAL-M on the antiallodynic effect of s.c. opioids (DPA). The series is classed as in vivo, rat.
The next series deals with respiratory functions. Conditions: dose of 253 nmol/kg; ref our previous work; cited from earlier work.
In a further series the target is T1, MOR (Rattus norvegicus, UniProt P33535).
T1 construct: incubating 50–100 μg of membrane protein of lumbar dorsal horn with 0.1- 4 nM; from tissue; host or cells: rat lumbar (L3-5) dorsal spinal cord / dorsal horn membranes, diabetic and control rats
T1 sequence (P33535 whole entry): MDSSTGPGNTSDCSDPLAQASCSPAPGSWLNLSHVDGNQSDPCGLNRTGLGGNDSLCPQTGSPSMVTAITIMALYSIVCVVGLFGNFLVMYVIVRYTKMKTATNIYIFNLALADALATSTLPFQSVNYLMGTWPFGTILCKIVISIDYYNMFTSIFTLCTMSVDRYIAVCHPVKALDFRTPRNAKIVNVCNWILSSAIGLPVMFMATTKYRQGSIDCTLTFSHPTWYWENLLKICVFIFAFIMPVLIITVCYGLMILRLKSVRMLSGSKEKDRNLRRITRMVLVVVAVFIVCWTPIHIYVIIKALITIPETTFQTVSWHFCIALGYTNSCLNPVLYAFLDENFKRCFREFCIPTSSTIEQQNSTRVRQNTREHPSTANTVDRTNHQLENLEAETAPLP
Briefly: [3H]DAMGO saturation binding in dorsal spinal cord membranes.

In series [1], `Clc1cccc(Cl)c1N=C1NCCN1` [clonidine, clonidine-hydrochloride] displayed a gastric emptying of 55 ± 2%.
Take `CN1CC[C@]23c4c5ccc(O)c4O[C@H]2[C@@H](O)C=C[C@H]3[C@H]1C5` [Morphine, morphine hydrochloride]: the ED30diabetic/ED30non-diabetic in series [2] came out at 7. In addition, in series [2] (sc), the “ED30 (effective dose producing 30% effect), diabetic animals” value came to 20692 nmol/kg; the “ED30 (effective dose producing 30% effect), non-diabetic animals” value is 6589 nmol/kg; the “dose inducing significant antinociceptive action in naïve (weight matched) rats” value is ≥ 2500 nmol/kg; the “time of peak antinociceptive effect” value worked out at 30 min. Also, the “effectiveness of morphine in doses up to 10 mg/kg” value with STZ treated animals is on record as “ineffectiveness”. The “antiallodynic effect at 12th week of diabetes at the lowest antiallodynic dose” value in series [3] was “produced antiallodynic effects”. The “lowest dose that significantly attenuated the allodynia (lowest antiallodynic dose)” value in series [3] (sc) is on record as 40000 nmol/kg.
For the molecule `C=CC[N+]1(C)CC[C@]23c4c5ccc(O)c4O[C@H]2C(=O)CC[C@@]3(O)[C@H]1C5` (some centres unmarked) [NAL-M, Naloxone methiodide], the “effect of co-administered NAL-M on the antiallodynic action of 14-O-MeM6SU and morphine” value in series [4] (NAL-M 10.6 μmol/kg s.c., co-administered with s.c. 14-O-MeM6SU or morphine) is recorded as “failed to alter the antiallodynic action”. Also, the “effect of NAL-M alone” value in series [4] (NAL-M alone, n = 5, data not shown) was “no effect”.
`CO[C@@]12C=C[C@H](OS(=O)(=O)O)[C@@H]3Oc4c(O)ccc5c4[C@@]31CCN(C)[C@@H]2C5` [14-O-MeM6SU, 14-O-methylmorphine-6-O-sulfate]: the “times higher potency than morphine in diabetic conditions based on ED30 values” in series [2] is 48 times. For the same molecule, in series [2] (sc), the “ED30 (effective dose producing 30% effect), diabetic animals” value amounted to 434 nmol/kg; the “ED30 (effective dose producing 30% effect), non-diabetic animals” value came to 335 nmol/kg; the “antinociceptive action in naïve rats at 253 nmol/kg” value is “failed to show any significant antinociceptive action”; the “dose inducing significant antinociceptive action in naïve (weight matched) rats” value came out at 506 nmol/kg. Besides, the “time of peak antinociceptive effect” value in series [2] (sc) came to 60 min. The “antiallodynic effect at 12th week of diabetes at the lowest antiallodynic dose” value in series [3] was “produced antiallodynic effects”. In addition, in series [3] (sc), the “antiallodynic action in diabetic rats, all tested doses” value was “significantly ameliorated the allodynia” and the “lowest dose that significantly attenuated the allodynia (lowest antiallodynic dose)” value came to 253 nmol/kg. Besides, in the series with respiratory functions, the respiratory depression result is “no respiratory depression”.
As to `C[C@@H](NC(=O)[C@@H](N)Cc1ccc(O)cc1)C(=O)NCC(=O)N(C)[C@@H](Cc1ccccc1)C(=O)NCCO` [DAMGO, Tyr-D-Ala-Gly-(NMe)Phe-Gly-ol], on MOR (dorsal horn of control rats), the “Bmax of [3H]DAMGO binding, controls” value stood at 23.55 ± 4.36 fmol/mg. Besides, the “Bmax of [3H]DAMGO binding, diabetic rats” value on MOR (dorsal horn of diabetic rats) was 13.11 ± 1.85 fmol/mg.
